In patent US8084466B2, “Bicyclic heteroaryl-substituted imidazoles as modulators of the histamine H4 receptor” (Janssen Pharmaceutica NV, priority 2007, dated 2011):

What follows are compounds tested against T1, human histamine H4 receptor (Homo sapiens, UniProt Q9H3N8) (assay: Binding Assay on Recombinant Human Histamine H4 Receptor). Details: competition binding with 3H-histamine (5 nM; KD 5 nM), membranes of SK-N-MC or COS7 cells expressing human H4 receptor; average of results; > = highest value tested.
T1 construct: expressed in transfected cells; host or cells: SK-N-MC cells or COS7 cells, transient transfection with pH4R; cell membranes
How it was run: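 Membranes from SK-N-MC or COS7 cells transiently transfected with H4R incubated 45 min at room temperature with ³H-histamine; nonspecific binding defined with 10,000 nM histamine. Filtration and scintillation counting. Ki from competition with 5 nM ³H-histamine, using a KD of 5 nM.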

T1 sequence (Q9H3N8 whole entry): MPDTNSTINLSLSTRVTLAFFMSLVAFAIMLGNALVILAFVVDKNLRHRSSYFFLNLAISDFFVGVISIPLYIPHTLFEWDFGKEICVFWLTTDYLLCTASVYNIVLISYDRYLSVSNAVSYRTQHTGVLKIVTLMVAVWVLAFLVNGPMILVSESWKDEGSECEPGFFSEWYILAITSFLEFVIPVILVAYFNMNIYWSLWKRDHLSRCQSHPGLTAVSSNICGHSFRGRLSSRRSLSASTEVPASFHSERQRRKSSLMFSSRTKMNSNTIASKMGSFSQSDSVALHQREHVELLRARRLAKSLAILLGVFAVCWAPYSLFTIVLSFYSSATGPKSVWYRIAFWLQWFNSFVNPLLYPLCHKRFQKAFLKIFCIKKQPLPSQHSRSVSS

Row | Compound | Ki
1 | CN1CCC(CCCCn2ccc3c(-c4nc5cc(F)c(F)cc5[nH]4)cccc32)CC1 [Example 67, 5,6-Difluoro-2-{1-[4-(1-methyl-piperidin-4-yl)-butyl]-1H-indol-4-yl}-1H-1 5 benzoimidazole] | 184 nM
2 | Cc1c(-c2nc3cc(Cl)ccc3[nH]2)ccc2c1CCN2CCCC1CCN(C)CC1 [Example 58, 5-Chloro-2-{4-methyl-1-[3-(1-methyl-piperidin-4-yl)-propyl]-2,3-dihydro-1H-indol-5-yl}-1H-benzoimidazole] | 19 nM
3 | Cc1nc2c(ccc3[nH]c(-c4ccc5c(c4C)CCN5CCCC4CCN(C)CC4)nc32)s1 [Example 60, 2-Methyl-7-{4-methyl-1-[3-(1-methyl-piperidin-4-yl)-propyl]-2,3-dihydro-1H-indol-5-yl}-6H-imidazo[4′,5′:3,4]benzo[2,1-d]thiazole] | 91 nM
4 | Cc1cc(C)c2nc(-c3ccc4c(ccn4CCCC4CCN(C)CC4)c3Cl)[nH]c2c1 [Example 9, 2-{4-Chloro-1-[3-(1-methyl-piperidin-4-yl)-propyl]-1H-indol-5-yl}-4,6-dimethyl-1H-benzoimidazole] | 14 nM
5 | Cc1c(Cl)ccc2[nH]c(-c3ccc4c(ncn4CCCC4CCNCC4)c3C)nc12 [Example 113, 5-Chloro-4,4′-dimethyl-1′-(3-piperidin-4-yl-propyl)-1H,1′H-[2,5′]bibenzoimidazolyl] | 165 nM
6 | CC(C)(C)c1ccc2[nH]c(-c3cccc4c3ccn4CCCCC3CCNCC3)nc2c1 [Example 105, 5-tert-Butyl-2-[1-(4-piperidin-4-yl-butyl)-1H-indol-4-yl]-1H-benzoimidazole] | 2660 nM
7 | CN1CCC(CCCn2cc(Cl)c3cc(-c4nc5cc(C(C)(C)C)ccc5[nH]4)ccc32)CC1 [Example 28, 5-tert-Butyl-2-{3-chloro-1-[3-(1-methyl-piperidin-4-yl)-propyl]-1H-indol-5-yl}-1H-benzoimidazole] | 349 nM
8 | Cc1c(F)ccc2[nH]c(-c3ccc4c(ccn4CCCC4CCN(C)CC4)c3Cl)nc12 [Example 8, 2-{4-Chloro-1-[3-(1-methyl-piperidin-4-yl)-propyl]-1H-indol-5-yl}-5-fluoro-4-methyl-1H-benzoimidazole] | 29 nM
9 | Cc1cccc2[nH]c(-c3ccc4c(c3)ncn4CCCCC3CCNCC3)nc12 [Example 117, 4-Methyl-1′-(4-piperidin-4-yl-butyl)-1H,1′H-[2.5′]bibenzoimidazolyl] | > 10000 nM
10 | Cc1cc(C)c2nc(-c3ccc4c(c3C)CCN4CCCC3CCN(C)CC3)[nH]c2c1 [Example 57, 4,6-Dimethyl-2-{4-methyl-1-[3-(1-methyl-piperidin-4-yl)-propyl]-2,3-dihydro-1H-indol-5-yl}-1H-benzoimidazole] | 5 nM
11 | CN1CCN(CCCn2ccc3cc(-c4nc5cc(Cl)ccc5[nH]4)ccc32)CC1 [Example 65, 5-Chloro-2-{1-[3-(4-methyl-piperazin-1-yl)-propyl]-1H-indol-5-yl}-1H-benzoimidazole] | 145 nM
12 | Cc1c(F)ccc2[nH]c(-c3ccc4c(c3Cl)CCN4CCCC3CCN(C)CC3)nc12 [Example 4, 2-{4-Chloro-1-[3-(1-methyl-piperidin-4-yl)-propyl]-2,3-dihydro-1H-indol-5-yl}-5-fluoro-4-methyl-1H-benzoimidazole] | 34 nM
13 | Cc1ccc2[nH]c(-c3cc4ccn(CCCC5CCNCC5)c4cc3Cl)nc2c1C [Example 100, 2-[6-Chloro-1-(3-piieridin-4-yl-propyl)-1H-indol-5-yl]-4,5-dimethyl-1H-benzoimidazole] | 3330 nM
14 | CN1CCC(CCCCn2ccc3c(-c4nc5cc(C(=O)c6ccccc6)ccc5[nH]4)cccc32)CC1 [Example 20, (2-{1-[4-(1-Methyl-piperidin-4-yl)-butyl]-1H-indol-4-yl}-1H-benzoimidazol-5-yl)-phenyl-methanone] | 619 nM
15 | Cc1[nH]c(-c2ccc3c(ccn3CCCN3CCN(C)CC3)c2)nc1-c1ccc(Cl)cc1 [Example 80, 5-[4-(4-Chloro-phenyl)-5-methyl-1H-imidazol-2-yl]-1-[3-(4-methyl-piperazin-1-yl)-propyl]-1H-indole] | 1980 nM
16 | Cc1cc(Cl)cc2[nH]c(-c3ccc4ccn(CCCCC5CCNCC5)c4c3)nc12 [Example 108] | 2000 nM
17 | CN1CCC(CCCCn2ccc3c(-c4nc5cc6c(cc5[nH]4)OCO6)cccc32)CC1 [Example 19, 6-{1-[4-(1-Methyl-piperidin-4-yl)-butyl]-1H-indol-4-yl}-5H-[1,3]dioxolo[4′,5′:4,5]benzo[1,2-d] imidazole] | 404 nM
18 | Clc1cccc2[nH]c(-c3cccc4c3ccn4CCCCC3CCNCC3)nc12 [Example 36, 4-Chloro-2-[1-(4-piperidin-4-yl-butyl)-1H-indol-4-yl]-1H-benzoimidazole] | 2330 nM
19 | Cc1c(Cl)ccc2[nH]c(-c3ccc4c(ncn4CCCC4CCN(C)CC4)c3C)nc12 [Example 54, 5-Chloro-4,4′-dimethyl-1′-[3-(1-methyl-piperidin-4-yl)-propyl]-1H ,1′H-[2,5′]bibenzoimidazolyl] | 1 nM

Row | Compound | Ki
20 | Cc1ccc2[nH]c(-c3cccc4c3c(Cl)cn4CCCCC3CCN(C)CC3)nc2c1C [Example 74, 2-{3-Chloro-1-[4-(1-methyl-piperidin-4-yl)-butyl]-1H-indol-4-yl}-4,5-dimethyl-1H-benzoimidazole] | 1670 nM
21 | Cc1c(C)n(CCCC2CCN(C)CC2)c2ccc(-c3nc4c(C)c(F)ccc4[nH]3)cc12 [Example 15, 2-{2,3-Dimethyl-1-[3-(1-methyl-piperidin-4-yl)-propyl]-1H-indol-5-yl}-5-fluoro-4-methyl-1H-benzoimidazole] | 110 nM
22 | Cc1c(F)ccc2[nH]c(-c3ccc4c(ccn4CCCC4CCN(C)CC4)c3)nc12 [Example 11, 5-Fluoro-4-methyl-2-{1-[3-(1-methyl-piperidin-4-yl)-propyl]-1H-indol-5-yl}-1H-benzoimidazole] | 77 nM
23 | CCCc1[nH]c(-c2ccc3c(ncn3CCCC3CCN(C)CC3)c2C)nc1C [Example 81, 4-Methyl-1-[3-(1-methyl-piperidin-4-yl)-propyl]-5-(4-methyl-5-propyl-1H-imidazol-2-yl)-1H-benzoimidazole] | 953 nM
24 | Fc1cc(F)c2nc(-c3cc4ccn(CCCC5CCNCC5)c4cc3Cl)[nH]c2c1 [Example 99, 2-[6-Chloro-1-(3-piperidin-4-yl-propyl)-1H-indol-5-yl]-4,6-difluoro-1H-benzoimidazole] | 2670 nM
25 | CN1CCC(CCCn2ccc3cc(-c4nc5cc(C(C)(C)C)ccc5[nH]4)cnc32)CC1 [Example 92] | 353 nM
26 | COC(=O)c1ccc2[nH]c(-c3ccc4c(c3Cl)CCN4CCCC3CCN(C)CC3)nc2c1 [Example 5, 2-{4-Chloro-1-[3-(1-methyl-piperidin-4-yl)-propyl]-2,3-dihydro-1H-indol-5-yl}-1H-benzoimidazole-5-carboxylic acid methyl ester] | 76 nM
27 | Cc1c(F)ccc2[nH]c(-c3ccc4c(ccn4CCCN4CCN(C)CC4)c3)nc12 [Example 13, 5-Fluoro-4-methyl-2-{1-[3-(4-methyl-piperazin-1-yl)-propyl]-1H-indol-5-yl}-1H-benzoimidazole] | 168 nM
28 | Cc1cccc2[nH]c(-c3ccc4ccn(CCCCC5CCNCC5)c4c3)nc12 [Example 107, 4-Methyl-2-[1-(4-piperidin-4-yl-butyl)-1H-indol-6-yl]-1H-benzoimidazole] | > 10000 nM
29 | Cc1cccc2[nH]c(-c3ccc4ncn(CCCCC5CCNCC5)c4c3)nc12 [Example 122, 4-Methyl-3′-(4-piperidin-4-yl-butyl)-1H,3′H-[2,5′]bibenzoimidazolyl] | 1670 nM
30 | Cc1cccc2[nH]c(-c3ccc4ccn(CCCCC5CCN(C)CC5)c4c3)nc12 [Example 27, 4-Methyl-2-{1-[4-(1-methyl-piperidin-4-yl)-butyl]-1H-indol-6-yl}-1H-benzoimidazole] | 750 nM
31 | Cc1c(F)ccc2[nH]c(-c3ccc4ccn(CCCCC5CCN(C)CC5)c4c3)nc12 [Example 26, 5-Fluoro-4-methyl-2-{1-[4-(1-methyl-piperidin-4-yl)-butyl]-1H-indol-6-yl}-1H-benzoimidazole] | 880 nM
32 | Clc1ccc2[nH]c(-c3ccc4c(ccn4CCCN4CCNCC4)c3)nc2c1 [Example 64, 5-Chloro-2-[1-(3-piperazin-1-yl-propyl)-1H-indol-5-yl]-1H-benzoimidazole] | 1520 nM
33 | CN1CCC(CCCCn2ccc3c(-c4nc5cc6ccccc6cc5[nH]4)cccc32)CC1 [Example 21, 2-{1-[4-(1-Methyl-piperidin-4-yl)-butyl]-1H-indol-4-yl}-1H-naphtho[2,3-d]imidazole] | 187 nM
34 | FC(F)(F)c1ccc2[nH]c(-c3cccc4c3c(Cl)cn4CCCCC3CCNCC3)nc2c1 [Example 130, 2-[3-Chloro-1-(4-piperidin-4-yl-butyl)-1H-indol-4-yl]-5-trifluoromethyl-1H-benzoimidazole] | > 10000 nM
35 | Cc1cccc2[nH]c(-c3ccc4c(ncn4CCCC4CCN(C)CC4)c3C)nc12 [Example 53, 4,4′-Dimethyl-1′-[3-(1-methyl-piperidin-4-yl)-propyl]-1H,1′H-[2,5′]bibenzoimidazolyl] | 15 nM
36 | CN1CCC(CCCCn2cc(Cl)c3c(-c4nc5c(F)c(F)ccc5[nH]4)cccc32)CC1 [Example 75, 2-{3-Chloro-1-[4-(1-methyl-piperidin-4-yl)-butyl]-1H-indol-4-yl}-4,5-difluoro-1H-benzoimidazole] | 1000 nM
37 | Cc1c(F)ccc2[nH]c(-c3ccc4c(c3)c(Cl)cn4CCCC3CCN(C)CC3)nc12 [Example 88, 2-{3-Chloro-1-[3-(1-methyl-piperidin-4-yl)-propyl]-1H-indol-5-yl}-5-fluoro-4-methyl-1H-benzoimidazole] | > 10000 nM
38 | Cc1cc(F)cc2[nH]c(-c3ccc4c(ncn4CCCC4CCN(C)CC4)c3C)nc12 [Example 55, 6-Fluoro-4,4′-dimethyl-1′-[3-(1-methyl-piperidin-4-yl)-proyl]-1H,1′H-[2,5′]bibenzoimidazolyl] | 4 nM
